The values below come from paper PMC8765251, “Orally administered intelligent self-ablating nanoparticles: a new approach to improve drug cellular uptake and intestinal absorption” (Drug Delivery, 2022).

Molecules are shown by their SMILES. Read-outs that look alike come from different tables or passages of the source.

A word on the AUC: it is concentration integrated over time.

A short description of this data set: Pharmacokinetic study. The class given is in vivo. Particulars: SD rats; for AUC: serum liraglutide by ELISA, n = 5/group, mean ± SD. On the procedure:
SD rats (GemPharmatech Co., Ltd.) weighing 200–220 g were fasted overnight and randomly divided into five groups(n = 5/group): […] The first four groups were administered orally. After a single administration, blood was collected and centrifuged, and serum was collected. An ELISA Kit for liraglutide was used to measure the blood concentration of liraglutide. The assay was performed according to the instructions of the ELISA Kit for liraglutide. The processed samples were tested using a microplate reader (CYT5MV microplate reader, BioTek USA Botten Instruments Co., Ltd.), and the drug concentration was calculated by plotting the curve.
On the technique in general: In an ELISA, binding on a coated surface is turned into a signal by an enzyme label.

`CCCCCCCCCCCCCCCC(=O)N[C@@H](CCC(=O)NCCCC[C@H](NC(=O)[C@H](C)NC(=O)[C@H](C)NC(=O)[C@H](CCC(N)=O)NC(=O)CNC(=O)[C@H](CCC(=O)O)NC(=O)[C@H](CC(C)C)NC(=O)[C@H](Cc1ccc(O)cc1)NC(=O)[C@H](CO)NC(=O)[C@H](CO)NC(=O)[C@@H](NC(=O)[C@H](CC(=O)O)NC(=O)[C@H](CO)NC(=O)[C@@H](NC(=O)[C@H](Cc1ccccc1)NC(=O)[C@@H](NC(=O)CNC(=O)[C@H](CCC(=O)O)NC(=O)[C@H](C)NC(=O)[C@@H](N)Cc1cnc[nH]1)[C@@H](C)O)[C@@H](C)O)C(C)C)C(=O)N[C@@H](CCC(=O)O)C(=O)N[C@@H](Cc1ccccc1)C(=O)N[C@H](C(=O)N[C@@H](C)C(=O)N[C@@H](Cc1c[nH]c2ccccc12)C(=O)N[C@@H](CC(C)C)C(=O)N[C@H](C(=O)N[C@@H](CCCNC(=N)N)C(=O)NCC(=O)N[C@@H](CCCNC(=N)N)C(=O)NCC(=O)O)C(C)C)[C@@H](C)CC)C(=O)O` [liraglutide]: the “BR (relative bioavailability)” value is listed as 5.37% (oral (i.g.) versus subcutaneous liraglutide, dose-normalised AUC) and 100% (subcutaneous injection, the reference). In addition, the AUC by setting is: (single oral administration) 1.06118 ± 0.05655 ng·h/mL; (Sprague-Dawley, rat, sc, single subcutaneous injection, read-out: AUC) 1.98 ± 0.109 ng·h/mL.
